Literature values, collected in US12653874B2, “Nant cancer vaccine” (NantCell, Inc., priority 2016, dated 2026).

Assays:
advanced melanoma = conditions: unresectable or advanced melanoma, result in words
[1] = patients receiving treatment (Conroy 2011)

CC(C)(C)c1nc(-c2cccc(NS(=O)(=O)c3c(F)cccc3F)c2F)c(-c2ccnc(N)n2)s1 [Dabrafenib]
PFS (advanced melanoma): improvement in PFS when compared to dacarbazine

FOLFIRINOX
median OS (pancreatic cancer; [1]): 11.1 months
median PFS (pancreatic cancer; [1]): 6.4 months
OS and PFS versus gemcitabine monotherapy (pancreatic cancer; result in words): improves OS and PFS over monotherapy with gemcitabine

rituximab: anti-CD20 antibody
response rate to single agent retreatment (CD20-positive NHL; rituximab refractory (RR) patients, reasonable estimate, trial data not reported): < 5%
patients responding to retreatment (CD20-positive NHL; rituximab sensitive (RS) patients): approximately 40%
